Assay results reported in PMC12291851, “Hydrogen Sulfide (H2S)-Donating Formyl Peptide Receptor 2 (FPR2) Agonists: Design, Synthesis, and Biological Evaluation in Primary Mouse Microglia Culture” (Antioxidants, 2025).

Columns and labels:
[1] = Cell-free H2S release fluorescence assay with probe 9 (7-azido-4-methylcoumarin); format: physicochemical; conditions: PBS/DMSO 10%, 37 °C, probe 9 100 μM
Protocol: The H2S release fluorescence assay was carried out in a final volume of 100 μL PBS/DMSO 10% in black 96-well plates. Solutions with decreasing concentrations of each tested compound were prepared in PBS/DMSO 10%. Then, 50 μL of each solution was dispensed in triplicate in each well. Starting from a 10 mM stock solution, a 200 μM solution of probe 9 was prepared and stored in the dark until 50 μL was dispensed in each well. Blank wells containing only the probe at 100 μM in 100 μL of PBS/DMSO 10% are also prepared. A H2S calibration curve was obtained by incubating solutions of NaSH with the probe under the same conditions, although a different plate was used to minimize interferences due to the diffusion of rapidly released H2S. After 24 h and 48 h incubation in a humidified incubator at 37 °C, 5% CO2, fluorescence reads are obtained from each well with a plate reader TECAN M1000 Pro (Tecan, Männedorf, Switzerland), at λex = 350 nm and λem = 440 nm. Each experiment was replicated at least three times. The data were processed using Microsoft Excel (Microsoft, Redmond, WA, USA) and GraphPad Prism 7 (GraphPad Software, La Jolla, CA, USA).
Compound 9 is a turn-on fluorescent probe that features an azido moiety which can be reduced to amine by H2S, leading to the formation of the fluorescent derivative 7-amino-4-methylcoumarin 10 (λex = 350 nm and λem = 440 nm, Scheme 2). We included NaHS in the assay as a positive control and 3a as a negative control.

[2] = system: mouse primary microglial cells; assay: NO release assay (Griess) in primary microglial cells; format: cell-based; conditions: for LPS-induced NO production: 1 μM pretreatment 1 h, then LPS 0.1 μg/mL 24 h; for NO levels under basal conditions: 1 μM, no LPS
Protocol: Primary microglial cell cultures were derived from the cortices of 1–2-day-old mouse pups (1pup/1 brain/1 flask). After decapitation, the brains were extracted and immediately placed in cold Hanks’ Balanced Salt Solution (HBSS, Gibco, New York, NY, USA) on ice. The brains were washed at least three times with 7 mL of HBSS and then transferred to 10 mL of fresh culture media consisting of Dulbecco’s Modified Eagle Medium (DMEM) with GlutaMax and high glucose (4.5 g/L) (Gibco, New York, NY, USA) on ice. The tissue was minced and incubated in HBSS containing glucose, bovine serum albumin (BSA; Sigma-Aldrich, St. Louis, MO, USA), and HEPES (Gibco, New York, NY, USA) with 0.025% trypsin at 37 °C for 20 min. The trypsinization was halted by adding DMEM with GlutaMax and high glucose (4.5 g/L) supplemented with 10% heat-inactivated fetal bovine serum (FBS, Gibco, New York, NY, USA). The tissue was then gently triturated to obtain a single-cell suspension. Cells were plated at a density of 3 × 10^5 cells/cm^2 in culture medium composed of DMEM with GlutaMax and high glucose (4.5 g/L), supplemented with 10% heat-inactivated FBS, 100 U/mL penicillin, and 0.1 mg/mL streptomycin (all from Gibco, New York, NY, USA), in poly-L-lysine-coated 75 cm^2 culture flasks. On the ninth day in vitro (maintained at 37 °C, 5% CO2), the flasks were agitated on a horizontal shaker for 1 h at 37 °C and 80 rpm. Following centrifugation, the cells were resuspended in culture medium and seeded at final densities of 1.25 × 10^6 cells/well in 6-well plates, 2 × 10^5 cells/well in 24-well plates, or 4 × 10^4 cells/well in 96-well plates. The purity of microglial cell cultures was assessed as we have shown previously.
Microglia cell cultures were pretreated with the FPR2 agonists 8b (1 µM) or 7b (1 µM) for 1 h and then stimulated with lipopolysaccharide (LPS; 0.1 μg/mL; Escherichia coli 0111:B4; Sigma-Aldrich, St. Louis, MO, USA) for 24 h. The concentration of 1 μM was chosen based on our preliminary data (Supplementary File). Control cultures were treated with the appropriate vehicle. […]
NO (nitrite ion in solution) production from LPS-treated microglial cells was measured using the Griess reaction, as previously described by. After 24 h of treatment, equal volumes of cell culture medium and Griess reagents (Griess A: 0.1% N-1-naphthylethylenediamine dihydrochloride and Griess B: 1% sulfanilamide in 5% phosphoric acid) were combined in a 96-well plate and the absorbance was read at 540 nm using an Infinite M200PRO microplate reader (TECAN, Männedorf, Switzerland). The results were normalized to the NO levels released by vehicle-treated cells (set at 100%) and expressed as a percentage of the control ± SD.

[3] = system: mouse primary microglial cells; assay: LDH release assay in primary microglial cells; format: cell-based; conditions: 1 μM pretreatment 1 h, then LPS 0.1 μg/mL 24 h
Protocol: (§1) Primary microglial cell cultures were derived from the cortices of 1–2-day-old mouse pups (1pup/1 brain/1 flask). After decapitation, the brains were extracted and immediately placed in cold Hanks’ Balanced Salt Solution (HBSS, Gibco, New York, NY, USA) on ice. The brains were washed at least three times with 7 mL of HBSS and then transferred to 10 mL of fresh culture media consisting of Dulbecco’s Modified Eagle Medium (DMEM) with GlutaMax and high glucose (4.5 g/L) (Gibco, New York, NY, USA) on ice. The tissue was minced and incubated in HBSS containing glucose, bovine serum albumin (BSA; Sigma-Aldrich, St. Louis, MO, USA), and HEPES (Gibco, New York, NY, USA) with 0.025% trypsin at 37 °C for 20 min. The trypsinization was halted by adding DMEM with GlutaMax and high glucose (4.5 g/L) supplemented with 10% heat-inactivated fetal bovine serum (FBS, Gibco, New York, NY, USA). […] The purity of microglial cell cultures was assessed as we have shown previously. […]
LDH release was measured as previously described by as an estimation of cell damage 24 h after LPS treatment. […] Absorbance was measured at 540 nm using an Infinite M200PRO microplate reader (TECAN, Männedorf, Switzerland). The results were normalized to the LDH activity released from vehicle-treated cells (considered as 100%) and expressed as a percentage of the control ± SD.

IL-18 = IL-18 ELISA in medium of microglial cultures; format: cell-based, mouse; conditions: 1 μM pretreatment 1 h, then LPS 0.1 μg/mL 24 h
Protocol: as §1, with “min.” for “min. The trypsinization was halted by adding DMEM with GlutaMax and high glucose (4.5 g/L) supplemented with 10% heat-inactivated fetal bovine serum (FBS, Gibco, New York, NY, USA).”
(§2) To assess the effect of test compounds on IL-18, IL-6, and IL-10 levels, the medium of microglial cell cultures was collected 24 h after LPS treatment. The protein levels of the cytokines IL-18 (Mouse interleukin 18 ELISA kit), IL-6 (Mouse interleukin 6 ELISA kit), and IL-10 (Mouse interleukin 10 ELISA kit; all obtained from FineTest, Wuhan, China) were measured using commercially available enzyme-linked immunosorbent assay kits according to the manufacturer’s instructions. […]

IL-6 = IL-6 ELISA in medium of microglial cultures; format: cell-based, mouse; conditions: 1 μM pretreatment 1 h, then LPS 0.1 μg/mL 24 h
Protocol: as §1, with “min.” for “min. The trypsinization was halted by adding DMEM with GlutaMax and high glucose (4.5 g/L) supplemented with 10% heat-inactivated fetal bovine serum (FBS, Gibco, New York, NY, USA).”
as §2

IL-10 = IL-10 ELISA in medium of microglial cultures; format: cell-based, mouse; conditions: 1 μM pretreatment 1 h, then LPS 0.1 μg/mL 24 h
Protocol: as §1, with “min.” for “min. The trypsinization was halted by adding DMEM with GlutaMax and high glucose (4.5 g/L) supplemented with 10% heat-inactivated fetal bovine serum (FBS, Gibco, New York, NY, USA).”
as §2

Structure (SMILES) | H2S release detected with probe 9 in aqueous media ([1]; 48 h incubation) | LPS-induced NO production [2] | NO levels under basal conditions [2] | LPS-induced cytotoxicity (LDH release) [3] | LPS-induced increase of IL-18 level (IL-18) | LPS-induced increase of IL-6 level (IL-6) | LPS-induced increase of IL-10 level (IL-10) | H2S release detected with probe 9 in aqueous media ([1]; 24 h incubation)
N#Cc1ccc(C[C@H](NC(=O)Nc2ccc(Br)cc2)C(=S)N2CCc3ccccc32)cc1 [8b, (S)-1-(4-Bromophenyl)-3-[3-(4-cyanophenyl)-1-(indolin-1-yl)-1-thioxopropan-2-yl]urea] | limited capability to release H2S | effectively attenuated | neither compound increased NO levels | effectively mitigated | able to counterbalance the LPS-induced increase | able to counterbalance the LPS-induced increase | able to counterbalance the LPS-induced increase | –
N#Cc1ccc(C[C@H](NC(=O)Nc2ccc(F)cc2)C(=S)N2CCc3ccccc32)cc1 [7b, (S)-1-[3-(4-Cyanophenyl)-1-(indolin-1-yl)-1-thioxopropan-2-yl]-3-(4-fluorophenyl)urea] | more intense | effectively attenuated | neither compound increased NO levels | effectively mitigated | able to counterbalance the LPS-induced increase | able to counterbalance the LPS-induced increase | able to counterbalance the LPS-induced increase | detected H2S release
